Experimental data taken from patent publication US5158770A, “Aqueous solution containing ginkgo leaf extract” (Freund Industrial Co., Ltd., priority 1989, dated 1992).
Values after ≈ are worked out from the molar mass of the structure shown. Where a name gives a salt, the structure may show the parent alone.

What was measured:
[1] = Solubility Test-1: dissolution of ginkgo leaf extract dry powder in aqueous solution of the compound; assay type: physicochemical; design: key: .largecircle.: dissolved to form a transparent aqueous solution; X: insoluble; details: 5 g compound in 100 ml water at 20° C., 10 g ginkgo leaf extract, shaken 10 minutes
Protocol: To each aqueous solution was added 10 g of dry powder of the ginkgo leaf extract and shaken for 10 minutes to observe the dissolution state.

[2] = physchem; details: water
[3] = Solubility of the organic/inorganic compound in water

SMILES	Dissolution state [1]	solubility [2] [mg/mL]	solubility [3] [mg/mL]
CC(C)(CO)[C@@H](O)C(=O)NCCC(=O)O [Calcium pantothenate]	.largecircle.	–	–
N#CN=C(N)N [Dicyandiamide]	X	32 (≈ 381 mM)	–
OCC(O)CO [Glycerin]	X	–	–
CC[C@H](C)[C@H](N)C(=O)O [Isoleucine]	–	38 (≈ 290 mM)	–
CCCCCCCCCCCC[N+](C)(C)C.[Cl-] [Lauryltrimethylammonium chloride, Lauryltrimethyl-ammonium chloride]	.largecircle.	760	–
CSCC[C@H](N)C(=O)O [Methionine]	X	–	33 (≈ 221 mM)
O=C(O)c1cccnc1 [Nicotinic acid]	X	–	16 (≈ 130 mM)
Cc1ncc(CO)c(CO)c1O.Cl [Pyridoxine hydrochloride]	.largecircle.	190	–
Cc1cc2nc3c(=O)[nH]c(=O)nc-3n(C[C@H](O)[C@H](O)[C@H](O)CO)c2cc1C [Riboflavin]	X	–	0.1 (≈ 0.266 mM)
OC[C@@H](O)[C@@H](O)[C@H](O)[C@@H](O)CO [Sorbitol]	X	–	720 (≈ 3950 mM)
OC[C@H]1O[C@@](CO)(O[C@H]2O[C@H](CO)[C@@H](O)[C@H](O)[C@H]2O)[C@@H](O)[C@@H]1O [Sucrose]	X	664 (≈ 1940 mM)	–
NCCS(=O)(=O)O [Taurine]	–	90 (≈ 719 mM)	–
CC(C)[C@H](N)C(=O)O [Valine]	–	85 (≈ 726 mM)	–

The remaining lines, values ahead:

Dissolution state [1]	solubility [2] [mg/mL]	solubility [3] [mg/mL]	SMILES
–	–	420	Cl.N[C@@H](Cc1c[nH]cn1)C(=O)O [Histidine hydrochloride]
.largecircle.	–	500 (≈ 4090 mM)	NC(=O)c1cccnc1 [Nicotinic acid amide]
–	625 (≈ 4960 mM)	–	Oc1cccc(O)c1O [Pyrogallol]
.largecircle.	–	1000	Cc1ncc(C[n+]2csc(CCO)c2C)c(N)n1 [Thiamine hydrochloride]
.largecircle.	–	–	C[C@@H](O)[C@H](N)C(=O)O [Threonine]
.largecircle.	–	–	NC(N)=O [Urea]
